According to patent US20230241098A1, “ANTIVIRAL PHARMACEUTICAL COMPOSITION” (priority 2020, published 2023):
Where “and” joins values, the source holds several entries; their conditions need not be identical. Identical values can stand only once. Like-named read-outs stand apart in the source and are kept apart here.

Assays:
[1] = system: MucilAir nasal human 3D Epithelial model; assay: Cilia beating frequency (CBF); assay type: cell-based; conditions: Example 4; day 4; once or twice daily; ribavirin basal
[2] = system: Interleukin 8 (IL-8); assay: Interleukin 8 release into basal medium (ELISA); assay type: cell-based, human
[3] = system: RANTES; assay: RANTES release into basal medium (ELISA); assay type: cell-based, human
[4] = system: respiratory syncytial virus A; assay type: cell-based; conditions: RSV A
[5] = system: MucilAir nasal human 3D Epithelial model; assay: Mucociliary clearance (MCC), bead velocity; assay type: cell-based; conditions: Example 4; day 4; once or twice daily; ribavirin basal
[6] = system: MucilAir nasal human 3D Epithelial model
[7] = system: HRV-C15; assay: Viral genome copy number (quantitative RT-PCR of apical washes) in HRV-C15-infected MucilAir nasal epithelia (Examples 1 and 3); assay type: cell-based, human rhinovirus; conditions: for effect on RV-C15 replication (in words): rupintrivir basal, comparison of fucoidan sources
[8] = system: HRV-A16; assay: Viral genome copy number (quantitative RT-PCR of apical washes) in HRV-A16-infected MucilAir nasal epithelia (Example 5); assay type: cell-based, human rhinovirus; conditions: twice daily apical, rupintrivir 5 μM basal
[9] = system: HRV-B14; assay: Viral genome copy number (quantitative RT-PCR of apical washes) in HRV-B14-infected MucilAir nasal epithelia (Example 6); assay type: cell-based, human rhinovirus; conditions: for Mean Log 10 ((Copies/ml) + 1), viral genome copy number: 5 μM, positive antiviral control
[10] = system: MucilAir nasal human 3D Epithelial model; conditions: Examples 2 and 4 (RSV A experiments); all measured timepoints
[11] = Example 4, once or twice daily (25 μg Test UP: see once daily exception), ribavirin basal

Question: For `NC(=O)c1ncn([C@@H]2O[C@H](CO)[C@@H](O)[C@H]2O)n1` [Ribavirin, ribavirin], which “effect on RSV A induced cilia impairment (in words)” value [1] is on record?
Answer: Its value is “prevented”.

Question: What about the “effect on RSV A induced IL-8 release (in words)” value [2, 11] of the same molecule?
Answer: The value was “prevented the RSV A induced IL-8 release”.

Question: What about the “effect on RSV A-induced RANTES release (in words)” value [3, 11] of the same molecule?
Answer: Its value is “effectively prevented the virus-induced increase of RANTES release”.

Question: What about the “Mean viral genome copy number” value ([4]; Example 2, 3.5 hours post infection, AP apical / BL basal as in label, ribavirin 100 uM basal, 0.00 = below detection limit) of the same molecule?
Answer: The value was 5.63 Log 10 ((Copies/ml) + 1) and 3.52 Log 10 ((Copies/ml) + 1).

Question: What about the “Mean viral genome copy number” value ([4]; Example 2, 24 hours post infection, AP apical / BL basal as in label, ribavirin 100 uM basal, 0.00 = below detection limit) of the same molecule?
Answer: The value was 6.48 Log 10 ((Copies/ml) + 1) and 10.22 Log 10 ((Copies/ml) + 1).

Question: What about the “Mean viral genome copy number” value ([4]; Example 2, 48 hours post infection, AP apical / BL basal as in label, ribavirin 100 uM basal) of the same molecule?
Answer: Its value is 7.07 Log 10 ((Copies/ml) + 1) and 11.46 Log 10 ((Copies/ml) + 1).

Question: What about the “Mean viral genome copy number” value ([4]; Example 2, 72 hours post infection, AP apical / BL basal as in label, ribavirin 100 uM basal) of the same molecule?
Answer: The value was 7.78 Log 10 ((Copies/ml) + 1) and 10.33 Log 10 ((Copies/ml) + 1).

Question: What about the “Mean viral genome copy number” value ([4]; Example 2, 96 hours post infection, AP apical / BL basal as in label, ribavirin 100 uM basal) of the same molecule?
Answer: The value was 8.32 Log 10 ((Copies/ml) + 1) and 9.09 Log 10 ((Copies/ml) + 1).

Question: What about the “decrease of the viral load” value ([4]; Example 2, ribavirin 100 μM basal) of the same molecule?
Answer: Its value is 3 logs.

Question: What about the “Mean viral genome copy number” value ([4]; Example 4, 3.5 hours post infection, first block of Table 12, 1x (once daily apical), ribavirin 100 μM basal) of the same molecule?
Answer: Its value is 6.76 Log 10 ((Copies/ml) + 1).

Question: And the “Mean viral genome copy number” value ([4]; Example 4, 3.5 hours post infection, second block of Table 12, head prints 1x, ribavirin 100 μM basal)?
Answer: Its value is 6.76 Log 10 ((Copies/ml) + 1).

Question: What about the “Mean viral genome copy number” value ([4]; Example 4, 24 hours post infection, first block of Table 12, 1x (once daily apical), ribavirin 100 μM basal) of the same molecule?
Answer: Its value is 7.06 Log 10 ((Copies/ml) + 1).

Question: And the “Mean viral genome copy number” value ([4]; Example 4, 24 hours post infection, second block of Table 12, head prints 1x, ribavirin 100 μM basal)?
Answer: Its value is 7.06 Log 10 ((Copies/ml) + 1).

Question: And the “Mean viral genome copy number” value ([4]; Example 4, 48 hours post infection, first block of Table 12, 1x (once daily apical), ribavirin 100 μM basal)?
Answer: The value was 6.79 Log 10 ((Copies/ml) + 1).

Question: What about the “Mean viral genome copy number” value ([4]; Example 4, 48 hours post infection, second block of Table 12, head prints 1x, ribavirin 100 μM basal) of the same molecule?
Answer: Its value is 6.79 Log 10 ((Copies/ml) + 1).

Question: What about the “Mean viral genome copy number” value ([4]; Example 4, 72 hours post infection, first block of Table 12, 1x (once daily apical), ribavirin 100 μM basal) of the same molecule?
Answer: The value was 7.40 Log 10 ((Copies/ml) + 1).

Question: And the “Mean viral genome copy number” value ([4]; Example 4, 72 hours post infection, second block of Table 12, head prints 1x, ribavirin 100 μM basal)?
Answer: The value was 7.40 Log 10 ((Copies/ml) + 1).

Question: What about the “Mean viral genome copy number” value ([4]; Example 4, 96 hours post infection, first block of Table 12, 1x (once daily apical), ribavirin 100 μM basal) of the same molecule?
Answer: Its value is 8.89 Log 10 ((Copies/ml) + 1).

Question: What about the “Mean viral genome copy number” value ([4]; Example 4, 96 hours post infection, second block of Table 12, head prints 1x, ribavirin 100 μM basal) of the same molecule?
Answer: The value was 8.89 Log 10 ((Copies/ml) + 1).

Question: And the “effect on RSV A induced MCC reduction (in words)” value [5]?
Answer: Its value is “attenuated this RSV A induced MCC reduction”.

Question: And the “TEER of inoculated inserts (in words)” value ([6]; Example 4, RSV A-inoculated inserts, once or twice daily, ribavirin basal)?
Answer: The value was “TEER values similar to that of the mock inserts”.

Question: What about the “Mean viral genome copy number” value ([7]; Example 3, HRV-C15, 3.5 hours post infection, 1x (once daily apical), positive control basal, 0.00 = below detection limit) of the same molecule?
Answer: Its value is 0.00 Log 10 ((Copies/ml) + 1).

Question: And the “Mean viral genome copy number” value ([7]; Example 3, HRV-C15, 3.5 hours post infection, 2x (twice daily apical), positive control basal, 0.00 = below detection limit)?
Answer: Its value is 0.00 Log 10 ((Copies/ml) + 1).

Question: What about the “Mean viral genome copy number” value ([7]; Example 3, HRV-C15, 24 hours post infection, 1x (once daily apical), positive control basal) of the same molecule?
Answer: The value was 5.14 Log 10 ((Copies/ml) + 1).

Question: And the “Mean viral genome copy number” value ([7]; Example 3, HRV-C15, 24 hours post infection, 2x (twice daily apical), positive control basal)?
Answer: The value was 5.14 Log 10 ((Copies/ml) + 1).

Question: What about the “Mean viral genome copy number” value ([7]; Example 3, HRV-C15, 48 hours post infection, 1x (once daily apical), positive control basal) of the same molecule?
Answer: Its value is 7.63 Log 10 ((Copies/ml) + 1).

Question: What about the “Mean viral genome copy number” value ([7]; Example 3, HRV-C15, 48 hours post infection, 2x (twice daily apical), positive control basal) of the same molecule?
Answer: Its value is 7.63 Log 10 ((Copies/ml) + 1).

Question: What about the “Mean viral genome copy number” value ([7]; Example 3, HRV-C15, 72 hours post infection, 1x (once daily apical), positive control basal) of the same molecule?
Answer: Its value is 6.89 Log 10 ((Copies/ml) + 1).

Question: And the “Mean viral genome copy number” value ([7]; Example 3, HRV-C15, 72 hours post infection, 2x (twice daily apical), positive control basal)?
Answer: Its value is 6.89 Log 10 ((Copies/ml) + 1).

Question: And the “Mean viral genome copy number” value ([7]; Example 3, HRV-C15, 96 hours post infection, 1x (once daily apical), positive control basal)?
Answer: Its value is 6.24 Log 10 ((Copies/ml) + 1).

Question: And the “Mean viral genome copy number” value ([7]; Example 3, HRV-C15, 96 hours post infection, 2x (twice daily apical), positive control basal)?
Answer: Its value is 6.24 Log 10 ((Copies/ml) + 1).

Question: Which results are given for `CCOC(=O)/C=C/[C@H](C[C@@H]1CCNC1=O)NC(=O)[C@@H](CC(=O)[C@@H](NC(=O)c1cc(C)on1)C(C)C)Cc1ccc(F)cc1` [Rupintrivir]?
Answer: effect on RV-C15 induced IL-8 release (in words) ([2]; Example 1, HRV-C15-inoculated inserts, day 4 post infection): prevented; effect on RSV A induced IL-8 release (in words) ([2]; Example 2, RSV A-inoculated inserts, day 2 and day 4 as stated): prevented; effect on virus-induced increase of RANTES release (in words) ([3]; Example 3, RV-C15, rupintrivir basal): effectively prevented the virus-induced increase of RANTES release; Mean viral genome copy number ([8]; 3.5 hours post infection, 0.00 = below detection limit): 0.00 Log 10 ((Copies/ml) + 1); Mean viral genome copy number ([8]; 24 hours post infection, 0.00 = below detection limit): 0.00 Log 10 ((Copies/ml) + 1); Mean viral genome copy number ([8]; 48 hours post infection, 0.00 = below detection limit): 4.70 Log 10 ((Copies/ml) + 1); Mean viral genome copy number ([8]; 72 hours post infection, 0.00 = below detection limit): 5.30 Log 10 ((Copies/ml) + 1); Mean viral genome copy number ([8]; 96 hours post infection): 3.77 Log 10 ((Copies/ml) + 1); Mean Log 10 ((Copies/ml) + 1), viral genome copy number ([9]; time 3.5 h): 0.00 Log 10 ((Copies/ml) + 1); Mean Log 10 ((Copies/ml) + 1), viral genome copy number ([9]; time 24 h): 3.65 Log 10 ((Copies/ml) + 1); Mean Log 10 ((Copies/ml) + 1), viral genome copy number ([9]; time 48 h): 4.23 Log 10 ((Copies/ml) + 1); Mean Log 10 ((Copies/ml) + 1), viral genome copy number ([9]; time 72 h): 4.26 Log 10 ((Copies/ml) + 1); Mean Log 10 ((Copies/ml) + 1), viral genome copy number ([9]; time 96 h): 0.00 Log 10 ((Copies/ml) + 1); detection of virus (in words) ([9]; RV-B14, Day 4): no more virus was detected; effect on HRV-C15 induced transient TEER decrease (in words) ([6]; Example 1, HRV-C15-inoculated inserts, apical or basal as in label): prevented this transient TEER decrease; TEER of inoculated inserts ([6]; Example 3, HRV-C15-inoculated inserts): above 100 Ω·cm^2; cytotoxicity (LDH, Triton X-100 = 100%) [10]: below 5%; Mean viral genome copy number ([7]; Example 1, HRV-C15, 3.5 hours post infection, AP apical / BL basal as in label, rupintrivir 5 μM basal, 0.00 = below detection limit): 0.00 Log 10 ((Copies/ml) + 1); Mean viral genome copy number ([7]; Example 1, HRV-C15, 24 hours post infection, AP apical / BL basal as in label, rupintrivir 5 μM basal, 0.00 = below detection limit): 5.57 Log 10 ((Copies/ml) + 1); Mean viral genome copy number ([7]; Example 1, HRV-C15, 48 hours post infection, AP apical / BL basal as in label, rupintrivir 5 μM basal): 6.46 Log 10 ((Copies/ml) + 1); Mean viral genome copy number ([7]; Example 1, HRV-C15, 72 hours post infection, AP apical / BL basal as in label, rupintrivir 5 μM basal): 6.69 Log 10 ((Copies/ml) + 1); Mean viral genome copy number ([7]; Example 1, HRV-C15, 96 hours post infection, AP apical / BL basal as in label, rupintrivir 5 μM basal): 7.17 Log 10 ((Copies/ml) + 1); decrease of the viral load ([7]; Example 1, HRV-C15, rupintrivir 5 μM basal, on average): two; effect on RV-C15 replication (in words) ([7]; Example 3): most effective inhibitor of RV-C15 replication; effect on RV-C15 replication (in words) ([7]; Example 3, listed as rupintrivir): significantly reduced viral genome copy number

Question: How did the TEER ([6]; positive control for cytotoxicity, 10% (v/v) in normal saline, 50 μl apically, Examples 1 to 4) turn out when “Polyethylene glycol tert-octyl phenyl ether [Triton X-100]” was run?
Answer: Its TEER is “below 100 Ω·cm^2”.
